According to patent US20240408218A1, “CONJUGATES OF GLUCAGON AND AMPK ACTIVATORS” (KØBENHAVNS UNIVERSITET, priority 2021, published 2024):

Key:
[1] = Body weight in diet-induced obesity (DIO) mice, 7 days treatment; assay type: in vivo; conditions: s.c. once daily
Experimental: C57BL6J male mice, in the following referred to as diet-induced obesity (DIO) mice, were maintained on a high-fat diet (58% energy from fat) and had, for each study, an average body weight of more than 45 gram prior to study start. Mice were either housed individually or double-housed. The mice were maintained on a 12 h dark-light cycle at 21-23° C. Compounds were administered subcutaneously once daily (between 2 pm-5 pm) and food intake (FI) and body weight (BW) measured at the corresponding time. For body composition, measures of fat and lean mass were performed prior to the study (1-3 days prior to study start) and on the final day of the study using an MRI scanner (EchoMRI). The group of mice injected with a vehicle (saline) served as the control group.

[2] = background, Myers et al. Science 2017; cited from earlier work

NC(=O)c1ncn([C@@H]2O[C@H](CO)[C@@H](O)[C@H]2O)c1N [AICAR, 5-Aminoimidazole-4-carboxamide 1-β-D-ribofuranoside, reference compound]
reduction in body weight (BW %) compared to control group ([1]; FIG. 9, conjugate 100 nmol/kg or equimolar doses): ~4%

O[C@@H]1CO[C@H]2[C@@H]1OC[C@H]2Oc1nc2c(Cl)c(-c3ccc(-c4ccccc4)cc3)cnc2[nH]1 [MK-8722, (3R,3aR,6R,6aR)-6-((6-([1,1′-biphenyl]-4-yl)-7-chloro-3H-imidazo[4,5-b]pyridin-2-yl)oxy)hexahydrofuro[3,2-b]furan-3-ol, reference compound]
adverse effect halting use of the compound [2]: induction of cardiac hypertrophy | reduction in body weight percentage (BW %) ([1]; FIG. 3, conjugate 100 nmol/kg or equimolar doses): ~4%
